The target in data set [1] is β-amyloid protein. Particulars: read-out: ThT-β-amyloid protein dissociation constant Kd, cited from earlier work.
The target in data set [2] is T1, fibrils of β-amyloid peptide (human Aβ1–42) (Homo sapiens, UniProt P05067).
T1 construct: amyloid β protein fragment 1–42 (MW = 4514.04); purchased Merck-Sigma-Aldrich
The data set can be described thus: Fluorescence titration of sensors with β-amyloid fibrils (Kd by non-linear fitting). The format is binding. The note with it: for Kd: fibrils of β-amyloid peptide, sensor 1.0 × 10^−6 M, protein 0 to 2.0 × 10^−6 M, ICT band excitation/emission maxima, read-out: Binding constants values (Kd) and standard deviations. The method, then:
Amyloid fibrils from human Aβ1–42 peptide were prepared using a procedure that combines several protocols described in the literature. A 2.2 × 10^−4 M solution of commercially available Aβ1–42 peptide was prepared in a small volume of 100 mM sodium phosphate buffer (pH = 7.04) containing EDTA in concentration 10 mM. This solution was incubated at 37 °C during 72 h in a dry bath supported on an orbital shaker working at 200 rpm. […] Subsequently, 10 μL of the freshly prepared amyloid beta fibrils (c = 1.0 × 10^−4 M) were added to each of the solutions containing the sensors. After a stabilization period of 10 min after each fibril addition at 37 °C, and then equilibration time of 5 min at room temperature, fluorescence emission spectra were recorded for each sensor at their excitation maxima.

For data set [3], the target named is T2, amyloid-beta plaques (Homo sapiens, UniProt P05067). The data set can be described thus: Ex vivo staining of somatosensory cortex of APP/PS1 transgenic mice (confocal microscopy). The note with it: plaques most distinctly labeled at 458 nm excitation, also 488 and 555 nm, none at 594 or 405 nm. The text has this: Compound 6b was chosen for an initial labeling study by assessing its binding properties in the somatosensory cortex of APP/PS1 transgenic mice, a model of Alzheimer’s disease that develops amyloid-beta deposits in the brain from 6 to 7 months of age. […] Amyloid-beta plaques were most distinctly labeled at an excitation wavelength of 458 nm, with effective staining also being observed at 488 nm and 555 nm (Figure 8A–D). In contrast, no staining was detected when exciting at 594 nm or 405 nm (Figure 8E,F).
The free-floating sections were rinsed in 0.1 M phosphate buffer (PB) and incubated for 2 h at room temperature with a 20 μM solution of each compound 6, prepared by diluting a 1.0 × 10^−4 M stock solution in DMSO with phosphate buffer. After incubation, the sections were rinsed again in 0.1 M phosphate buffer, mounted using ProLong Gold Antifade Reagent (Invitrogen Corporation, Carlsbad, CA, USA), and stored at −20 °C.
(§1) Image acquisition was performed with a Zeiss LSM 710 confocal laser scanning system (Carl Zeiss Microscopy GmbH, Jena, Germany). They were recorded at 0.5 μm intervals (63 × objective) through separate channels, and ZEN 2012 software (Zeiss) was then used to construct composite images from each optical series by combining the images recorded through the different channels (image resolution 1024 × 1024 pixels; pixel size 188 nm). […]

Data set [4] has as its target T2, amyloid-beta plaques. The data set can be described thus: Ex vivo staining of temporal neocortex of an Alzheimer's disease patient, amyloid-beta antibody co-labelling. The note with it: temporal neocortex of an AD patient; 20 μM compound, 2 h. The protocol: (§2) AD human tissue samples were analyzed within the context of a previous study that utilized fixed coronal sections to investigate the progression of Alzheimer’s disease. Brain tissue samples from AD patients were obtained from the Banco de Tejidos Fundación CIEN (Dr. A. Rábano, Área de Neuropatología, Centro Alzheimer, Fundación Reina Sofía, Madrid, Spain). Immediately after removal, the brains were fixed in cold 4% paraformaldehyde in 0.1 M phosphate buffer (pH 7.4). After 2 h, the tissue was sectioned into small blocks and post-fixed in the same medium at 4 °C for 24–48 h. Serial coronal sections (50 μm thick) were prepared using a vibratome (St. Louis, MO, USA), cryoprotected in a 30% sucrose solution in 0.1 M phosphate buffer and stored in an ethylene glycol/glycerol solution at −20 °C until use. […]
as §1

In data set [5] the target is T3, neurofibrillary tangles (phosphorylated tau) (Homo sapiens, UniProt P10636). The data set can be described thus: Ex vivo staining of temporal neocortex of an Alzheimer's disease patient, AT8 antibody co-labelling. The note with it: temporal neocortex of an AD patient; AT8 antibody detects phosphorylated tau. The method, then:
as §2, §1

Data set [6] has as its system caspase-3 activity in HEK293-Tau3R cells. The data set is described as follows: Caspase-3 activity in cells treated with okadaic acid (Ac-DEVD-AMC substrate). The format is cell-based, human. The note with it: for Caspase-3 activation induced by okadaic acid: 25 nM okadaic acid with compound at 10 or 100 nM; for Decrease of caspase-3 activity compared to cells treated with okadaic acid alone: 100 nM compound, 25 nM okadaic acid, p < 0.05. The method, then:
HEK293-Tau3R cells in logarithmic growth phase were digested with trypsin at a concentration of 0.25% and then resuspended in the medium and subcultured in Petri dishes (100 × 15 mm) at a seeding density of 1.5 × 10^5 cells/mL. […] Upon completion of the treatment, cells were collected, washed twice with PBS (pH 7.4) and pelleted by centrifugation at 1000× g for 5 min. The pellet was then resuspended in PBS and centrifuged again at 1000× g for 10 min at 4 °C to remove the supernatant. The resulting cell pellets were lysed in a buffer containing 10 mM Tris–HCl (pH 7.5) with 0.5% CHAPS, 1 mM MgCl2, 1 mM EGTA, 1 mM EDTA, 10% glycerol, 5 mM β-mercaptoethanol, 1 mM DTT, 1 mM phenylmethylsulfonyl fluoride (PMSF), 100 μM leupeptin and 1 μM pepstatin. Following a 30 min incubation on ice, the lysates were clarified by centrifugation at 13,000× g for 5 min. Protein concentrations in the supernatants were determined using the bicinchoninic acid (BCA) assay.
The caspase 3 activity assay performed using the known fluorogenic substrate Ac-DEVD-AMC. HEK293-Tau3R cells were harvested, washed with ice-cold PBS and lysed in 100 μL of lysis buffer containing 50 mM HEPES (pH 7.4), 100 mM NaCl, 0.1% CHAPS, 10% glycerol, 10 mM DTT, 0.1 mM EDTA and protease inhibitors (1 μg/μL each of leupeptin, pepstatin and aprotinin). The lysates were, sonicated and centrifuged at 14,000× g for 15 min at 4 °C. For the assay, 20 μg of cellular protein from the lysates were incubated with 20 µM caspase 3 substrate in assay buffer (50 mM HEPES, pH 7.4, 100 mM NaCl, 0.1% CHAPS, 10% glycerol, 10 mM DTT) for 2 h at 37 °C. Substrate cleavage was monitored using a microplate fluorescence reader with excitation at 360 nm and emission at 460 nm. Caspase activity was determined based on the cleavage of the fluorogenic substrate and is expressed as fluorescence arbitrary units.

In data set [7] the target is T3, neurofibrillary tangles (phosphorylated tau). The arrangement: method as in PMID 16914838. Particulars: brain samples from AD patients; cited from earlier work.
Data set [8] has as its system HEK293-Tau3R cells. The data set is described as follows: Cell viability, MTT assay. The format is cell-based, human. Particulars: 10 to 50 nM for 24 h. For orientation: Tetrazolium assays rely on reduction of a dye to a coloured formazan, in cell work by metabolically active cells.
Experimental: Cells were cultured in DMEM medium supplemented with 10% fetal bovine serum, 1 mM pyruvate, 2 mM glutamine and 0.2 mg/mL of the antibiotic zeocin. Cultures were maintained at 37 °C in a humidified atmosphere containing 5% CO2.
HEK293-Tau3R cells were seeded into 96-well polystyrene plates at a density of 20,000 cells per well and incubated at 37 °C for 24 h to allow cell adhesion. […] Cell viability was assessed by measuring metabolic activity through the reduction of MTT (3-(4,5-dimethylthiazol-2-yl)-2,5-diphenyltetrazolium bromide) to insoluble formazan. Absorbance values were measured at 550 nm using a microplate reader.
The target in data set [9] is T4, Aβ1–42 peptide (Homo sapiens, UniProt P05067).
T4 construct: amyloid β protein fragment 1–42 (MW = 4514.04); purchased Merck-Sigma-Aldrich
The data set can be described thus: Aβ1–42 aggregation inhibition, Thioflavin T fluorescence. The note with it: 0.5 μM compound; Figure 11. The format is biochemical. The protocol:
A 0.5 mg/mL solution of Aβ1–42 peptide in 10% aqueous ammonium hydroxide was sonicated for 30 min to achieve monomerization. Solvent evaporation in a SpeedVac afforded a thin film that was dissolved in 60 mM NaOH, adjusting its concentration to 20 μM, as a stock solution. For aggregation inhibition experiments, 2 μM Aβ1–42 peptide was mixed with the styrylquinolines 6 and incubated for 4 days at 37 °C. The degree of Aβ aggregation was determined using Thioflavin-T fluorescence analysis.
All assays were done on flat black 96-well plates. […] Peptide Aβ1–42 alone in buffer reaction served as a control for the screen. Fluorescence values were measured at 37 °C in replicates using a microplate reader, with the measurement taken at 24 h intervals for 72 h. […] All assays were performed at least twice to ensure reproducibility.

The target in data set [10] is T5, AcPHF6 (Ac-VQIVYK-NH2) tau-hexapeptide (Homo sapiens, UniProt P10636).
T5 construct: purchased Bachem (Bubendorf BL, Switzerland)
The data set is described as follows: AcPHF6 aggregation inhibition, Thioflavin T fluorescence. In kind it is biochemical. Particulars: 1 μM, non-toxic concentration; Figure 12. The protocol: This in vitro assay was performed using the N-acetylated and C-amidated hexapeptide AcPHF6 (Ac-VQIVYK-NH2), derived from the ^306VQIVYK^311 sequence found in the native […]. This region of the tau protein is involved in fibril aggregation processes and is commonly used as a model for screening tau aggregation inhibitors.
In brief, AcPHF6 peptide was dissolved in 50 mM phosphate buffer (pH 7.4) at a concentration of 1 mM and vortexed to obtain a homogeneous solution. For aggregation inhibition experiments, 100 μM AcPHF6 peptide was mixed with compounds 6 and incubated at 37 °C for 4 days. The degree of AcPHF6 aggregation was determined using Thioflavin-T fluorescence analyses.
Briefly, the screen of the styrylquinolines was performed based on Thioflavin T fluorescence. All assays were done on flat black 96-well plates. […] Immediately before the experiment, 1 μM heparin was added to initiate AcPHF6 aggregation. AcPHF6 alone in buffer reaction served as a control for the screen. Fluorescence values were taken at 24 h intervals for 72 h, at 37 °C and in replicates, using a microplate reader. […] All assays were performed at least twice to ensure reproducibility.

Data on nine compounds can be found in article PMC12428582, “2-Styrylquinolines with Push-Pull Architectures as Sensors for β-Amyloid Aggregation with Theranostic Properties” (International Journal of Molecular Sciences, 2025).

Read-outs that look alike come from different tables or passages of the source.

T2 sequence (P05067 672-711 limits assumed): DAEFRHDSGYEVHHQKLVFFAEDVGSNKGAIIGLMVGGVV
T1 sequence (P05067 672-713 limits assumed): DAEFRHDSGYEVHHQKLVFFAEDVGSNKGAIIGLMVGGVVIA
T3 sequence (P10636 623-758 limits assumed): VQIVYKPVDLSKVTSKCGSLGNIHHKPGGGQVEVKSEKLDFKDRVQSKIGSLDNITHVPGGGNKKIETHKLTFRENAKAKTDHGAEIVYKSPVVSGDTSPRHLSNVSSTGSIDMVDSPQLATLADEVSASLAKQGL
T4 sequence (P05067 672-713 limits assumed): as the sequence (P05067 672-713 limits assumed) above

With `Cc1ccc2c(c1)sc(-c1ccc(N(C)C)cc1)[n+]2C` [ThT, Thioflavin T], the dissociation constant Kd (in general, a measure of binding affinity in units of concentration) in data set [1] (ref 57) is 0.8 µM; in data set [1] (ref 58), 2.56 µM; in data set [1] (ref 59), 30.4 µM; in data set [1] (ref 60), 46 µM.
With `CCN(CC)c1ccc(/C=C/c2ccc3cc(C=C(C#N)C#N)ccc3n2)cc1` [6b, (E)-2-((2-(4-(Diethylamino)styryl)quinolin-6-yl)methylene)malononitrile], the dissociation constant Kd in data set [2] was determined as 7.93 ± 0.63 µM. In addition, the “Labeling of amyloid-beta deposits” value in data set [3] is reported as “specific binding to β-sheet amyloid structures”. Moreover, in data set [4], the “Labeling of amyloid-beta plaques” value is reported as “specifically labeled amyloid-beta plaques”. The “Labeling of neurofibrillary tangles” value in data set [5] is “did not label neurofibrillary tangles”. For the same compound, the “Caspase-3 activation induced by okadaic acid” value (“Caspase-3 activation induced” for short) in data set [6] is “significantly reduced”.
Take `N#CC(C#N)=Cc1ccc2nc(/C=C/c3ccc(N4CCCCC4)cc3)ccc2c1` [6c, (E)-2-((2-(4-(Piperidin-1-yl)styryl)quinolin-6-yl)methylene)malononitrile]: the Kd in data set [2] stood at 8.19 ± 0.61 µM. The “Labeling of amyloid-beta plaques” value in [4] is “specifically labeled amyloid-beta plaques”. Moreover, in data set [5], the “Labeling of neurofibrillary tangles” value is listed as “did not label neurofibrillary tangles”.
For Thioflavin S, the “Binding to beta-sheet structures and phosphorylated tau” value in data set [7] is “bind both beta-sheet structures and phosphorylated tau”.
On to `C=C1[C@@H](O)[C@@H]2O[C@]3(CC[C@H](/C=C/[C@@H](C)[C@@H]4CC(C)=C[C@@]5(O[C@H](C[C@@](C)(O)C(=O)O)CC[C@H]5O)O4)O3)CC[C@H]2O[C@@H]1[C@@H](O)C[C@H](C)[C@H]1O[C@@]2(CCCCO2)CC[C@H]1C` [okadaic acid, reference compound], for which, in data set [8], the “Concentrations at which a marked decline in cell viability was observed” value is “above 30 nM”. Further, the “Concentration from which caspase 3 activity began to rise” value in data set [6] (okadaic acid 10–50 nM) is recorded as at least 25 nM.
With `CC(=O)OCCN(CCOC(C)=O)c1ccc(/C=C/c2ccc3cc(C=C(C#N)C#N)ccc3n2)cc1` [6e, (E)-((4-(2-(6-(2,2-Dicyanovinyl)quinolin-2-yl)vinyl)phenyl)azanediyl)bis(ethane-2,1-diyl) diacetate], the Kd in data set [2] is 10.2 ± 1.53 µM. In data set [9], the “Aβ1–42 aggregation inhibition, ranking” value was “most active compound”. In data set [10], the “AcPHF6 aggregation inhibition, ranking” value is listed as “best result”. Further, in data set [6], the “Caspase-3 activation induced” value was “significantly reduced” and the “Decrease of caspase-3 activity compared to cells treated with okadaic acid alone” value is “very similar results”.
As for `CN(C)c1ccc(/C=C/c2ccc3cc(C=C(C#N)C#N)ccc3n2)cc1` [6a, (E)-2-((2-(4-(Dimethylamino)styryl)quinolin-6-yl)methylene)malononitrile], in data set [2], the Kd was determined as 2.43 ± 0.32 µM.
On to `N#CC(C#N)=Cc1ccc2nc(/C=C/c3ccc(N4CCOCC4)cc3)ccc2c1` [6d, (E)-2-((2-(4-Morpholinostyryl)quinolin-6-yl)methylene)malononitrile], for which the Kd in data set [2] was 6.6 ± 0.79 µM. Besides, the “Caspase-3 activation induced” value in data set [6] is reported as “significantly reduced”.
Consider “(E)-2-((2-(2-(4-(Dimethylamino)naphthalen-1-yl)vinyl)quinolin-6-yl)-methylene)malononitrile [6g]”, for which the “Enhancement of fluorescence emission in the presence of beta-amyloid protein fibrils” value in data set [2] (excitation wavelength characteristic of each compound, Figure 6) is recorded as “greater difficulty in binding to the beta sheet structure of the protein”. Further, in data set [6], the “Caspase-3 activation induced” value is listed as “significantly reduced” and the “Decrease of caspase-3 activity compared to cells treated with okadaic acid alone” value is recorded as “more than 50%”.
